Laboratory results taken from ChEMBL document CHEMBL1201862, “PubChem BioAssay data set” (2004).
Active and inactive are the calls of the source.

Experiments:
[1] = target: T1, Corticotropin-releasing factor receptor 2/Corticotropin-releasing factor-binding protein (Homo sapiens, UniProt P24387+Q13324); test: Dose Response confirmation of uHTS hits for small molecule antagonists of the CRF-binding protein and CRF-R2 receptor complex.; type: functional; details: read-out: IC50_Mean
T1 sequence (Q13324 whole entry): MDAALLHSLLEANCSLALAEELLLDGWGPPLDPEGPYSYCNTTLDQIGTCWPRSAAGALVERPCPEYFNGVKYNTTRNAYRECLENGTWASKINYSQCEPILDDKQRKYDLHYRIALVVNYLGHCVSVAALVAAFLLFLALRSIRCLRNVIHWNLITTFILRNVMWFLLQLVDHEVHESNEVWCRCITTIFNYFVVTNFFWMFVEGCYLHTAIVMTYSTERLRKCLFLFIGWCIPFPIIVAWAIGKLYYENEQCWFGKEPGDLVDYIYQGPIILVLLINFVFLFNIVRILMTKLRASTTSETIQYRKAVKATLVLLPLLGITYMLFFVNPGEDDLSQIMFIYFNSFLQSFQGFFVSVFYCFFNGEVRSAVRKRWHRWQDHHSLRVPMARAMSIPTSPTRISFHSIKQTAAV
T1 sequence (P24387 whole entry): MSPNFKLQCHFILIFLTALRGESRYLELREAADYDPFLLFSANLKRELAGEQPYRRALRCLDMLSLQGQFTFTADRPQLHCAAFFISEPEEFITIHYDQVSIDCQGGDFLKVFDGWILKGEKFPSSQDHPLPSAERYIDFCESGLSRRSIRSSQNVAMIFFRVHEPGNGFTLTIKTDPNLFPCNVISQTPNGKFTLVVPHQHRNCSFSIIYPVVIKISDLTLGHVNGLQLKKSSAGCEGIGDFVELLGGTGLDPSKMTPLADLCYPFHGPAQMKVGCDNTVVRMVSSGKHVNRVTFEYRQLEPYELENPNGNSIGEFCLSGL

[2] = target: T1, Corticotropin-releasing factor receptor 2/Corticotropin-releasing factor-binding protein; test: activators of CRF receptor 2 with binding protein – uHTS hits, confirmation (AID 602473); type: functional; details: read-out: EC50_Mean
[3] = CRF-BP/CRF-R2 complex antagonists, dose response, cell-based, uHTS hits, 384-well (AID 651639); type: functional, Homo sapiens; details: read-out: IC50_Mean
[4] = target: T2, Sentrin-specific protease 1 (Homo sapiens, UniProt Q9P0U3); test: potency of human SENP1 inhibitors, dose response, biochemical, kinetic FRET (AID 651697); type: functional; details: read-out: IC50_Mean
T2 sequence (Q9P0U3 whole entry): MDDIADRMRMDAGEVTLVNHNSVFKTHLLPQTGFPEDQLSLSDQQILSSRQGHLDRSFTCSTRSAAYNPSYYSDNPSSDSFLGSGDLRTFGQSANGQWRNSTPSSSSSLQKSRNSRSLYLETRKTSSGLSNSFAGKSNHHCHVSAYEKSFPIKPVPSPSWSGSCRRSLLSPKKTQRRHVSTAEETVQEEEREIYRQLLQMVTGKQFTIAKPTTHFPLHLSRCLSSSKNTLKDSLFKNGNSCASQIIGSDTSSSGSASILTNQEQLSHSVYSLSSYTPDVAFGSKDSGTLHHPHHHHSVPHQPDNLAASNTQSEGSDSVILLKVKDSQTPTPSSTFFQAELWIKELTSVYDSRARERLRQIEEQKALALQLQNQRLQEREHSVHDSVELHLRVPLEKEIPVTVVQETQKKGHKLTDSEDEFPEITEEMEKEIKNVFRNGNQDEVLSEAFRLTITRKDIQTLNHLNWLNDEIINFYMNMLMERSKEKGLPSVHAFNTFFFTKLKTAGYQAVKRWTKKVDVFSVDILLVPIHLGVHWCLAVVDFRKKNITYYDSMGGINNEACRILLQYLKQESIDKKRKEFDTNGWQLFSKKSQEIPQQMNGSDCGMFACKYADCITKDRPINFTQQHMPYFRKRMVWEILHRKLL

[5] = target: T2, Sentrin-specific protease 1; test: Dose response confirmation of small molecule inhibitors of the catalytic domain of the SUMO protease, SENP1 in a FRET assay.; type: functional; details: read-out: IC50_Mean
[6] = HeLa cell cytotoxicity, dose response, cytotoxicity control for MgcRacGAP inhibitor project (AID 624300); type: functional
[7] = target: T3, Rac GTPase-activating protein 1 (Homo sapiens, UniProt Q9H0H5); test: MgcRacGAP GTPase-activating activity inhibitors, confirmation, biochemical, ADP Hunter fluorescence, primary and confirmatory (AID 624330); type: functional
T3 sequence (Q9H0H5 whole entry): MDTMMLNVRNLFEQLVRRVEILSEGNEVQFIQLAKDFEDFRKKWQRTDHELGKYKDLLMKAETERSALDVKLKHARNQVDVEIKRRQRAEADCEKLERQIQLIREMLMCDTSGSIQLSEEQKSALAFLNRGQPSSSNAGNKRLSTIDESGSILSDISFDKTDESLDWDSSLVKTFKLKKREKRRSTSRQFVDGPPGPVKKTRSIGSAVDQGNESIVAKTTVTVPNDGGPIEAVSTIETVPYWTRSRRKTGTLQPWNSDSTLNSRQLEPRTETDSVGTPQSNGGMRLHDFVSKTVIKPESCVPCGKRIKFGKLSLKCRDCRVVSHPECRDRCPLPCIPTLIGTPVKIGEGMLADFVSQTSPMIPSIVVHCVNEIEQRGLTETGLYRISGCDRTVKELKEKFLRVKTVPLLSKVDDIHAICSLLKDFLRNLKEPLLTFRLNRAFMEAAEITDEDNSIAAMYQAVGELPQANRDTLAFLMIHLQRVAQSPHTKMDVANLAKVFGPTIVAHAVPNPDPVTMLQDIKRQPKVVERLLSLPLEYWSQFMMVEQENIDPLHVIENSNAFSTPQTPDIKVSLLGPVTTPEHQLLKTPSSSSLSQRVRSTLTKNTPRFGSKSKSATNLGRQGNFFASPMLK

[8] = target: T4, Small ubiquitin-related modifier 1 (Homo sapiens, UniProt P63165); test: inhibitors of SUMO1 peptide binding, dose response, biochemical, fluorescence polarization, uHTS hits (AID 624382); type: functional; details: read-out: IC50_Mean
T4 sequence (P63165 whole entry): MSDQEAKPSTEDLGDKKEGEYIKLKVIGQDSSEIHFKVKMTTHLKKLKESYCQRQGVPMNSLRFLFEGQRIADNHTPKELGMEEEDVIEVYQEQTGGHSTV

[9] = target: T4, Small ubiquitin-related modifier 1; test: inhibitors of SUMO1 partner interactions, dose response, biochemical, FRET (AID 624383); type: functional; details: read-out: IC50_Mean
HEK293 [10] = test: NOD1 signaling inhibitors, primary screen, cell-based, luminescence, uHTS (AID 1578); type: functional; details: Homo sapiens
HEK293 [11] = test: cells; type: functional, cell-based; details: Homo sapiens
HEK293 [12] = test: cells; type: functional, cell-based; details: Homo sapiens; remark: listed apart in the source
HEK293 [13] = test: NOD2 signaling inhibitors in MDP-stimulated cells, cell-based, uHTS, luminescence (AID 2001); type: functional; details: Homo sapiens
[14] = target: Nuclear receptor subfamily 5 group A member 2 (Homo sapiens, UniProt O00482); type: functional, cell-based;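 also: HEK293T cells transfected with LRH-1 and a StAR promoter luciferase reporter; potency for inhibitors that lower LRH-1 driven reporter light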
Chain of Nuclear receptor subfamily 5 group A member 2 (O00482 whole entry): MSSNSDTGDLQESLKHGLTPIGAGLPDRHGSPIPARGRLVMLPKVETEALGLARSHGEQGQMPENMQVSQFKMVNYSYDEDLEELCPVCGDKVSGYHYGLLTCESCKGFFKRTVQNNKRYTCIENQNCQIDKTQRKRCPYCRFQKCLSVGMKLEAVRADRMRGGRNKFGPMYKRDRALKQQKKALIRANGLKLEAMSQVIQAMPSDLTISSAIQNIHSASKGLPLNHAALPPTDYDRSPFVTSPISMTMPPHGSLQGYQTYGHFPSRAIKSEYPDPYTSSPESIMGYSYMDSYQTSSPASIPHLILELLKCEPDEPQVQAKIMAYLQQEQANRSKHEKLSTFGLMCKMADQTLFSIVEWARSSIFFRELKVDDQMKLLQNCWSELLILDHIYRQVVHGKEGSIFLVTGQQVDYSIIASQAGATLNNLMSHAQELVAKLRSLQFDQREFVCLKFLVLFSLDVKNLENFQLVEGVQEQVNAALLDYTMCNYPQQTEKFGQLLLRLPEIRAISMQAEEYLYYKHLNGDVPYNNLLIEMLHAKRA

Steroidogenic factor 1 = Steroidogenic factor 1 (Homo sapiens, UniProt Q13285); test: Counterscreen for inverse agonists of the liver receptor homolog-1 (LRH-1; NR5A2): Luminescence-based cell-based high throughput dose response assay to identify inverse agonists of the Steroidogenic Factor 1 Nuclear Receptor (SF1; NR5A1).; type: functional
Chain of Steroidogenic factor 1 (Q13285 whole entry): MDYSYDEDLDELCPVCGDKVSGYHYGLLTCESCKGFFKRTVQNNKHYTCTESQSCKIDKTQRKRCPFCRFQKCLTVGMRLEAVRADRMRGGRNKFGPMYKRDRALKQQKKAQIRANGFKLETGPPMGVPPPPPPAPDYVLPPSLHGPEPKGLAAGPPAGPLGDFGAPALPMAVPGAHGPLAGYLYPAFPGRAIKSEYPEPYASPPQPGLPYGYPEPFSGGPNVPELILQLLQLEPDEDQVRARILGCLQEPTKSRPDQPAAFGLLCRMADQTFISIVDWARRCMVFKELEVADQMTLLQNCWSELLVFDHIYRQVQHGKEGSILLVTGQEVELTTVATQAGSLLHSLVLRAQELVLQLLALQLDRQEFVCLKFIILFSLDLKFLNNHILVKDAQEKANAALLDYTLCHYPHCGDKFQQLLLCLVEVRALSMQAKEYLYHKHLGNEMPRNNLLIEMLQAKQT

[15] = StAR promoter reporter inhibition counter-screen, dose response, counter-screen for LRH-1 inverse agonist project, cell-based, luminescence, luciferase reporter (AID 651969); type: functional
Vero [16] = test: Vero cell cytotoxicity, cytotoxicity control for flavivirus capping enzyme inhibitors (AID 588742); type: functional; details: Chlorocebus sabaeus
Genome polyprotein = Genome polyprotein (dengue virus type 2, UniProt P29990); test: Dengue-2 NS5 methyltransferase inhibitors, primary screen, biochemical, confirmation dose response (AID 588689); type: functional
Chain of Genome polyprotein (P29990 2492-3391 limits assumed): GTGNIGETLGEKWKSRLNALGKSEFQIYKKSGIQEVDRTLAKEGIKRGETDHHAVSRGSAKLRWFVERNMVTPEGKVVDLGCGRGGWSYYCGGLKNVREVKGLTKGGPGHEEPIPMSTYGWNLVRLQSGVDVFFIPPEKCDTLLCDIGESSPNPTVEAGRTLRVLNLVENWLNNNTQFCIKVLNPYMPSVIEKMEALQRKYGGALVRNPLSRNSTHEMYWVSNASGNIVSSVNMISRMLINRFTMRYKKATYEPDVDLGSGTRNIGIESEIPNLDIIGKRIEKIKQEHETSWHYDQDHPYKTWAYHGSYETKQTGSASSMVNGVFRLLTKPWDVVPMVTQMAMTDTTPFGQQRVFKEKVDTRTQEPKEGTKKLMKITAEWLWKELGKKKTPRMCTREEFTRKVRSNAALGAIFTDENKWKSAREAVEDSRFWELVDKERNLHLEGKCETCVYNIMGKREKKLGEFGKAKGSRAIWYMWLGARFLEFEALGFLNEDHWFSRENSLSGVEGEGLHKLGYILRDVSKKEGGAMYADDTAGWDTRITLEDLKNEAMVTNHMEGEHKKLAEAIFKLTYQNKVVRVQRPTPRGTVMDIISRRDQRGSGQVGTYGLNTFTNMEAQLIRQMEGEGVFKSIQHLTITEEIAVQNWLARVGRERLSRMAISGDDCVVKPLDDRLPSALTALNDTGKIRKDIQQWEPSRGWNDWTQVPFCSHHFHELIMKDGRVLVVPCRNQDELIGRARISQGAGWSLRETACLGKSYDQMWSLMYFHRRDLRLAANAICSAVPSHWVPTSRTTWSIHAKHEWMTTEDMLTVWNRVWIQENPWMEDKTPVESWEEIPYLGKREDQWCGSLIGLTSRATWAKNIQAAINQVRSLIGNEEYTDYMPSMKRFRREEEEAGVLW

[17] = target: Photoreceptor-specific nuclear receptor (Homo sapiens, UniProt Q9Y5X4); type: functional, cell-based;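 also: CHO-S cells with Gal4-NCOR and VP16-NR2E3 two-hybrid luciferase reporter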
Chain of Photoreceptor-specific nuclear receptor (Q9Y5X4 whole entry, the tested form may be a part): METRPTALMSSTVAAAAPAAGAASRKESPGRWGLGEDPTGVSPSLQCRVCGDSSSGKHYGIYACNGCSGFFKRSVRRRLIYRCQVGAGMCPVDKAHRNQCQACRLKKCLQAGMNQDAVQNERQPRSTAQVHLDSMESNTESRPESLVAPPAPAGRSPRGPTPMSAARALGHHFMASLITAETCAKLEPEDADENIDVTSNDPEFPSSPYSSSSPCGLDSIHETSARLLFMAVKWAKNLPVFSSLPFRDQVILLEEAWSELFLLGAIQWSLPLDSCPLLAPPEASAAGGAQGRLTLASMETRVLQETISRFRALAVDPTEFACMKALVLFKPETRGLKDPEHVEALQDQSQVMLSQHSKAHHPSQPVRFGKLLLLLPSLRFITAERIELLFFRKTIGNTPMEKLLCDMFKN

[18] = inhibitors of firefly luciferase expression or activity, dose response, H4 neuroglioma cells, luminescence (AID 1990); type: functional, cell-based
[19] = Luminescence Cell-Based Dose Response HTS to Identify Inhibitors of 5'UTR Stem-Loop Driven Prion Protein mRNA Translation in H4 Neuroglioblastoma Cells. [Related pubchem assays: 1827 (Project Summary), 1813 (Primary HTS)]; type: functional
[20] = inhibitors of SNCA 5'UTR-driven reporter translation, confirmation, H4 neuroglioma cells, luminescence (AID 1988); type: functional, cell-based
[21] = target: T5, Ubiquitin-conjugating enzyme E2 N (Homo sapiens, UniProt P61088); type: functional;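 also: Dose-response confirmation in a TR-FRET assay detecting UBC13-driven polyubiquitin chain formation, inhibition measured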
T5 sequence (P61088 whole entry): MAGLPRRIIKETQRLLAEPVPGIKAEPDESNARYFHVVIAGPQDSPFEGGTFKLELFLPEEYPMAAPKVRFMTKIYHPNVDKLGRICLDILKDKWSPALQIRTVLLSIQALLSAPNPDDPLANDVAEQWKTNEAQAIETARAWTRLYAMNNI

Vero [22] = test: cells; type: functional; details: Chlorocebus sabaeus
[23] = target: 26S proteasome non-ATPase regulatory subunit 14 (Homo sapiens, UniProt O00487); test: inhibition of proteasome subunit RPN11 – biochemical, fluorescence polarization, uHTS hits, confirmation (AID 602368); type: functional
Chain of 26S proteasome non-ATPase regulatory subunit 14 (O00487 whole entry): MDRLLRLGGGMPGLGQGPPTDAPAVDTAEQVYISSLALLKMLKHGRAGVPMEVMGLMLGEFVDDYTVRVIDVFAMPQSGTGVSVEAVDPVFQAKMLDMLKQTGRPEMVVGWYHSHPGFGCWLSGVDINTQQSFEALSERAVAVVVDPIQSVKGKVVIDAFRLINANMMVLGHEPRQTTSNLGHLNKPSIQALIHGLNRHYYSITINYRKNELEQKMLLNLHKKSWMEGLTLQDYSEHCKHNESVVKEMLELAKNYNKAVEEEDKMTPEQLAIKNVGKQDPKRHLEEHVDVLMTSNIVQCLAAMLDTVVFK

[24] = target: 72 kDa type IV collagenase (Homo sapiens, UniProt P08253); test: Dose Response validation of uHTS RPN11 inhibitor hits using a MMP-2 Fluorescence assay.; type: functional
Chain of 72 kDa type IV collagenase (P08253 whole entry): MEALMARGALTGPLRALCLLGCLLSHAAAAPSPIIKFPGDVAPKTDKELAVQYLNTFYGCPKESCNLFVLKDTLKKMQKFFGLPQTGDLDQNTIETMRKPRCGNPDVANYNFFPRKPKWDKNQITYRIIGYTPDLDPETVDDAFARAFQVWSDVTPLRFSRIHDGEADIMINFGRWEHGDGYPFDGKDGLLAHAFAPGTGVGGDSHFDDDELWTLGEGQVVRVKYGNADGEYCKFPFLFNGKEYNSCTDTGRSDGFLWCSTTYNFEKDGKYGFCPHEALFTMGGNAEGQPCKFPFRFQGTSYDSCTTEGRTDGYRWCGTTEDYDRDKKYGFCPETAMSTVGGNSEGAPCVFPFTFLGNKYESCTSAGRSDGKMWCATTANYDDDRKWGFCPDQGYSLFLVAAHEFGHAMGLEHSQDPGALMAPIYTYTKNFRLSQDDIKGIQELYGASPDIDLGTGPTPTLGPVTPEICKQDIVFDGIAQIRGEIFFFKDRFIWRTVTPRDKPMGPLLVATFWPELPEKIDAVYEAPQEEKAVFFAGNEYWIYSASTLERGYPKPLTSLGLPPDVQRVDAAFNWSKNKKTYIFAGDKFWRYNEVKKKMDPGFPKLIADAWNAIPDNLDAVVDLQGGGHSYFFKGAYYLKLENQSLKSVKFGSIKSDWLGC

Prothrombin = Prothrombin (Bos taurus, UniProt P00735); test: thrombin inhibition, dose response, biochemical, fluorescence polarization, uHTS hits (AID 602369); type: functional
Leucine aminopeptidase = target: T6, Leucine aminopeptidase (Plasmodium falciparum 3D7, UniProt Q8IL11); test: P. falciparum M17LAP inhibitors, primary screen, biochemical, fluorogenic H-Leu-NHMec substrate, 1536-well (AID 1619); type: functional
T6 sequence (Q8IL11 whole entry): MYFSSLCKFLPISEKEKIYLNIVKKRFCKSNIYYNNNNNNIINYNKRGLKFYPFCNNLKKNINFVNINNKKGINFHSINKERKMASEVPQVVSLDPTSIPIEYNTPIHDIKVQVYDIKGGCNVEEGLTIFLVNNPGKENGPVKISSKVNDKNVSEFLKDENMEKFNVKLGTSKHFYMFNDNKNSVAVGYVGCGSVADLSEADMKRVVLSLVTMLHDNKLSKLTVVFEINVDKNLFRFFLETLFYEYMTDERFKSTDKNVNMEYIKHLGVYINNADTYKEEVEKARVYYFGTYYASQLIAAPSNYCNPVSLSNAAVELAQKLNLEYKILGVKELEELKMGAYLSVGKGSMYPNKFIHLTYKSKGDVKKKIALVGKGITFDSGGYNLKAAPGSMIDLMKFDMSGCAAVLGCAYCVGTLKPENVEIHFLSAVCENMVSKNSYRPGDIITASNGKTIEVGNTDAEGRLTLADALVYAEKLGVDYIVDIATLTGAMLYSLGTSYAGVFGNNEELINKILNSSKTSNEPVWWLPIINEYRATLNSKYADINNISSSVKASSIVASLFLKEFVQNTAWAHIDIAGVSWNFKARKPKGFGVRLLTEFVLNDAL

SMILES: COc1cccc(C2(c3cccc(OC)c3)CC2C(=O)Nc2ccccc2Cl)c1 (stereo unspecified)
- IC50 [1]: 3.83 µM (active)
- EC50 [2]: > 53 µM (inactive)
- IC50 [3]: > 20 µM (inactive)

SMILES: COc1ccccc1NN=C1C(=O)NC(=S)NC1=O
- IC50 [4]: 23.3 µM (inactive)
- IC50 [5]: 18 µM (active)

SMILES: COc1cc(/C=C2\SC(=S)N(CC(=O)O)C2=O)ccc1OC(=O)c1ccco1
- IC50 [4]: 4.52 µM (active)
- IC50 [5]: 7.29 µM (active)

SMILES: CCOc1cc(/C=C2\C(=O)N(CCc3ccc(OC)c(OC)c3)C(C)=C2C(=O)OC)ccc1O
- CC50 [6]: 100 µM (active)
- IC50 [7]: 118 µM (active)

SMILES: Cc1ccc(S(=O)(=O)N2CCOCC2)cc1C(=O)OCC(=O)Nc1ccc2[nH]c(O)nc2c1
- IC50 [8]: > 66.6 µM (inactive)
- IC50 [9]: 11.4 µM (active)

SMILES: C/C(=N\NC(=O)c1cc(Cl)ccc1O)c1ccc(Br)s1
- EC50 (HEK293 [10]): 1.93 µM (active)
- IC50 (HEK293 [11]): 5.47 µM (active)
- IC50 (HEK293 [12]): > 20 µM (inactive)
- IC50 (HEK293 [13]): 6.21 µM (inactive)
- IC50 [1]: < 0.368 µM (active)
- EC50 [2]: > 53 µM (inactive)
- IC50 [3]: > 20 µM (inactive)

SMILES: CCCc1nnc(SCC(=O)Nc2ccc(OC)cc2)o1
- IC50 [14]: 6.68 µM (active)
- IC50 (Steroidogenic factor 1): 15.5 µM (inactive)
- IC50 [15]: 35.9 µM (inactive)

SMILES: Cc1ccccc1Cn1nc(C)c(NC(=O)c2cc(-c3cccs3)on2)c1C
- IC50 [1]: 39.1 µM (active)
- EC50 [2]: > 53 µM (inactive)
- IC50 [3]: > 20 µM (inactive)

SMILES: COC(=O)c1ccc(NC(=O)CSc2nn3c(=O)c(C)nnc3s2)cc1
- IC50 [14]: 35.9 µM (inactive)
- IC50 (Steroidogenic factor 1): 35.9 µM (inactive)
- IC50 [15]: 35.9 µM (inactive)

SMILES: Cc1ccc(S(=O)(=O)N2[C@@H](c3ccc(Br)cc3)C(C(=O)O)=CC[C@H]2c2ccc(Cl)c(Cl)c2)cc1
- CC50 (Vero [16]): > 40 µM (active)
- IC50 (Genome polyprotein): 42.9 µM (active)
- IC50 [17]: 5.2 µM (active)
- IC50 [8]: > 66.6 µM (inactive)
- IC50 [9]: 6.25 µM (active)

SMILES: CN1CCc2c(sc3c2C(=O)NC(c2cn(Cc4ccccc4)c4ccccc24)N3)C1 (stereo unspecified)
- EC50 [18]: 8.71 µM (active)
- EC50 [19]: 8.12 µM (active)
- EC50 [20]: 5.25 µM (active)
- IC50 [21]: > 20 µM (inactive)
- CC50 (Vero [22]): 17.1 µM (active)
- IC50 [23]: 23.4 µM (active)
- IC50 [24]: > 100 µM (inactive)
- IC50 (Prothrombin): 16 µM (active)

SMILES: COc1cccc(C(=O)COc2cccc(NC(=O)c3cccc([N+](=O)[O-])c3)c2)c1
- IC50 [14]: 0.443 µM (active)
- IC50 (Steroidogenic factor 1): 0.443 µM (active)
- IC50 [15]: 10.9 µM (inactive)

SMILES: O=C(NCC1CCCO1)c1sc(=S)n2c1[nH]c(=O)c1ccc(C(=O)N3CCCCC3)cc12 (stereo unspecified)
- IC50 (Leucine aminopeptidase): 65.4 µM (active)
- IC50 [4]: 51.1 µM (inactive)
- IC50 [5]: 21.1 µM (inactive)
